Drawing on US20250353853A1, “FLAVIVIRUS INHIBITORS” (IRBM S.P.A., priority 2022, published 2025), this text covers EC50 and IC50 for 26 compounds.

Assay [1] concerns ZIKV replicon in Vero cells. Nature of the assay: ZIKV Replication Inhibition Assay (replicon, NanoLuc). Conditions: 72 h, read-out: Zika Replicon EC50. (In general: A replicon is a self-replicating genome or part of one, used to study replication in cells.)
Assay [2] has as its target West Nile Virus (WNV) NS2B-NS3 protease (West Nile virus (WNV), UniProt P06935). Nature of the assay: WNV Protease Inhibition Assay. In kind it is biochemical. An excerpt:
WNV Protease Inhibition Assay

The mark [3] stands for this setting: 2 nM protease, 10 μM pERTKR-AMC substrate, read-out: WNV Protease IC50.

Like-named read-outs stand apart in the source and are kept apart here. Where only a bound is given, the exact number is not on record here.

West Nile Virus (WNV) NS2B-NS3 protease, sequence (P06935 1502-1679 limits assumed): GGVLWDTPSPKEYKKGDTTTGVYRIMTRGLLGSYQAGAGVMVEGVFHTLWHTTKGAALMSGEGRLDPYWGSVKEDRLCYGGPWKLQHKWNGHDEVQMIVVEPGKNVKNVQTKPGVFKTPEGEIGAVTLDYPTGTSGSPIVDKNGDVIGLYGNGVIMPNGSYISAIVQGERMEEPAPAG
West Nile Virus (WNV) NS2B-NS3 protease, sequence (P06935 1371-1501 partner limits assumed): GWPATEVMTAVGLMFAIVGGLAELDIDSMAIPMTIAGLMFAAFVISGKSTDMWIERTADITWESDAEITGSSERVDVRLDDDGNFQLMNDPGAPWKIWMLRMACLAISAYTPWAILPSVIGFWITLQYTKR

On to `COc1ncc(-c2cccc(C[n+]3cc([N-]C(=O)Nc4cccc(C(F)(F)F)c4)on3)c2)cn1` [Example 53, (3-(3-(2-methoxypyrimidin-5-yl)benzyl)-1,2,3-oxadiazol-3-ium-5-yl)((3-(trifluoromethyl)phenyl)carbamoyl)amide], for which the EC50 (commonly the concentration giving half of the maximal effect) in assay [1] (Zika virus, Vero) was in the range of 100 to 1000 nM. The IC50 (in general, the concentration that inhibits the measured activity by half) in assay [2] fell in the range of 100 to 1000 nM.

Consider `COc1cc(-c2ccc(C[n+]3cc([N-]C(=O)Nc4cccc(C(F)(F)F)c4)on3)cc2)ccn1` [Example 63, (3-(4-(2-methoxypyridin-4-yl)benzyl)-1,2,3-oxadiazol-3-ium-5-yl)((3-(trifluoromethyl)phenyl)carbamoyl)amide], for which the EC50 in assay [1] (Zika virus, Vero) fell in the range of 100 to 1000 nM. Further, the IC50 in assay [2] was in the range of 100 to 1000 nM.

On to `Cc1noc(C)c1-c1ccc(C[n+]2cc([N-]C(=O)Nc3cccc(C(F)F)c3)on2)nc1` [Example 168, ((3-(difluoromethyl)phenyl)carbamoyl)(3-((5-(3,5-dimethylisoxazol-4-yl)pyridin-2-yl)methyl)-1,2,3-oxadiazol-3-ium-5-yl)amide], for which, in assay [1] (Zika virus, Vero), the EC50 fell in the range of 100 to 1000 nM. In assay [2], this compound displayed an IC50 of 100 to 1000 nM.

On to `Cc1ccc(NC(=O)[N-]c2c[n+](Cc3ccc(-c4c(C)noc4C)cn3)no2)cc1C(F)(F)F` [Example 158, (3-((5-(3,5-dimethylisoxazol-4-yl)pyridin-2-yl)methyl)-1,2,3-oxadiazol-3-ium-5-yl)((4-methyl-3-(trifluoromethyl)phenyl)carbamoyl)amide], for which, in assay [1] (Zika virus, Vero), the EC50 was less than 100 nM. The same compound yielded an IC50 in assay [2] of 100 to 1000 nM.

Take `O=C([N-]c1c[n+](Cc2ccc(-c3cncnc3C3CC3)cn2)no1)Nc1cccc(C(F)(F)F)c1` [Example 155, (3-((5-(4-cyclopropylpyrimidin-5-yl)pyridin-2-yl)methyl)-1,2,3-oxadiazol-3-ium-5-yl)((3-(trifluoromethyl)phenyl)carbamoyl)amide]: the EC50 in assay [1] (Zika virus, Vero) lay within 100 to 1000 nM. The IC50 in assay [2] is 100 to 1000 nM.

`Cc1noc(C)c1-c1ccc([C@@H](C)[n+]2cc([N-]C(=O)Nc3ccnc(C(F)(F)F)c3)on2)cc1` [Example 189, (R)-(3-(1-(4-(3,5-dimethylisoxazol-4-yl)phenyl)ethyl)-1,2,3-oxadiazol-3-ium-5-yl)((2-(trifluoromethyl)pyridin-4-yl)carbamoyl)amide]: the concentration giving a half-maximal response (EC50) in assay [1] (Zika virus, Vero) lay within 100 to 1000 nM. In assay [2], this compound yielded an IC50 of 100 to 1000 nM.

On to `O=C([N-]c1c[n+](Cc2ccc(-c3cncnc3Cl)cn2)no1)Nc1cccc(C(F)(F)F)c1` [Example 179, (3-((5-(4-chloropyrimidin-5-yl)pyridin-2-yl)methyl)-1,2,3-oxadiazol-3-ium-5-yl)((3-(trifluoromethyl)phenyl)carbamoyl)amide], for which the EC50 in assay [1] (Zika virus, Vero) lay in the range of 1000 to 20000 nM. For the same compound, the IC50 in assay [2] (setting [3]) was less than 100 nM.

`O=C([N-]c1c[n+](Cc2ccc(-c3cnoc3)cc2)no1)Nc1cccc(C(F)(F)F)c1` [Example 48, (3-(4-(isoxazol-4-yl)benzyl)-1,2,3-oxadiazol-3-ium-5-yl)((3-(trifluoromethyl)phenyl)carbamoyl)amide]: the EC50 in assay [1] (Zika virus, Vero) was in the range of 100 to 1000 nM. In addition, the IC50 in assay [2] was 100 to 1000 nM.

For the compound `Cc1ncnc(C)c1-c1ccc([C@H](C)[n+]2cc([N-]C(=O)Nc3ccnc(C(F)(F)F)c3)on2)cc1` [Example 190, (S)-(3-(1-(4-(4,6-dimethylpyrimidin-5-yl)phenyl)ethyl)-1,2,3-oxadiazol-3-ium-5-yl)((2-(trifluoromethyl)pyridin-4-yl)carbamoyl)amide], the EC50 in assay [1] (Zika virus, Vero) lay in the range of 100 to 1000 nM. This compound came in with an IC50 in assay [2] of less than 100 nM.

Regarding `O=C([N-]c1c[n+](Cc2ccc(-c3ccnnc3)cc2)no1)Nc1cccc(C(F)(F)F)c1` [Example 61, (3-(4-(pyridazin-4-yl)benzyl)-1,2,3-oxadiazol-3-ium-5-yl)((3-(trifluoromethyl)phenyl)carbamoyl)amide], the EC50 in assay [1] (Zika virus, Vero) is less than 100 nM. Besides, the IC50 in assay [2] (setting [3]) was less than 100 nM.

Take `N#Cc1ncncc1-c1ccc(C[n+]2cc([N-]C(=O)Nc3cncc(C(F)(F)F)c3)on2)nc1` [Example 144, (3-((5-(4-cyanopyrimidin-5-yl)pyridin-2-yl)methyl)-1,2,3-oxadiazol-3-ium-5-yl)((5-(trifluoromethyl)pyridin-3-yl)carbamoyl)amide]: the EC50 in assay [1] (Zika virus, Vero) is 1000 to 20000 nM. Besides, the 50% inhibitory concentration (IC50) in assay [2] (setting [3]) is less than 100 nM.

Turning to `Cc1noc(C)c1-c1ccc([C@H](C)[n+]2cc([N-]C(=O)Nc3ccnc(C(F)(F)F)c3)on2)cc1` [Example 191, (S)-(3-(1-(4-(3,5-dimethylisoxazol-4-yl)phenyl)ethyl)-1,2,3-oxadiazol-3-ium-5-yl)((2-(trifluoromethyl)pyridin-4-yl)carbamoyl)amide], the EC50 in assay [1] (Vero cell line with stable ZIKV replicon, Nano-Glo) lay in the range of 100 to 1000 nM. In assay [2] (read-out: WNV Protease IC50, 2 nM protease, 10 μM pERTKR-AMC substrate), the IC50 was in the range of 100 to 1000 nM.

Take `Cc1ncncc1-c1ccc(C[n+]2cc([N-]C(=O)Nc3cccc(C(F)(F)F)c3)on2)cc1` [Example 60, (3-(4-(4-methylpyrimidin-5-yl)benzyl)-1,2,3-oxadiazol-3-ium-5-yl)((3-(trifluoromethyl)phenyl)carbamoyl)amide]: the EC50 in assay [1] (Zika virus, Vero) is less than 100 nM. Moreover, the half-inhibitory concentration (IC50) in assay [2] (setting [3]) is less than 100 nM.

In the case of `C[C@@H](c1ccc(Br)cc1)[n+]1cc([N-]C(=O)Nc2cccc(C(F)(F)F)c2)on1` [Example 69, (S)-(3-(1-(4-bromophenyl)ethyl)-1,2,3-oxadiazol-3-ium-5-yl)((3-(trifluoromethyl)phenyl)carbamoyl)amide], the EC50 in assay [1] (Zika virus, Vero) is 100 to 1000 nM. The same compound displayed an IC50 in assay [2] of 1000 to 20000 nM.

As to `O=C([N-]c1c[n+](Cc2ccc(-c3ccncc3)cc2)no1)Nc1cccc(C(F)(F)F)c1` [Example 39, (3-(4-(pyridin-4-yl)benzyl)-1,2,3-oxadiazol-3-ium-5-yl)((3-(trifluoromethyl)phenyl)carbamoyl)amide], the EC50 in assay [1] (Zika virus, Vero) is 100 to 1000 nM. Further, the IC50 in assay [2] fell in the range of 100 to 1000 nM.

For the compound `Cc1nn(C)c(C)c1-c1ccc(C[n+]2cc([N-]C(=O)Nc3cncc(C(F)(F)F)c3)on2)nc1` [Example 147, ((5-(trifluoromethyl)pyridin-3-yl)carbamoyl)(3-((5-(1,3,5-trimethyl-1H-pyrazol-4-yl)pyridin-2-yl)methyl)-1,2,3-oxadiazol-3-ium-5-yl)amide], the 50% effective concentration (EC50) in assay [1] (Zika virus, Vero) lay in the range of 100 to 1000 nM. The IC50 in assay [2] (setting [3]) is less than 100 nM.

As for `C[C@H](c1ccc(Br)cc1)[n+]1cc([N-]C(=O)Nc2cccc(C(F)(F)F)c2)on1` [Example 68, (R)-(3-(1-(4-bromophenyl)ethyl)-1,2,3-oxadiazol-3-ium-5-yl)((3-(trifluoromethyl)phenyl)carbamoyl)amide], in assay [1] (Zika virus, Vero), the EC50 was 1000 to 20000 nM. This compound also had a concentration for half-maximal inhibition (IC50) in assay [2] of 1000 to 20000 nM.

Regarding `Cc1ncccc1-c1ccc(C[n+]2cc([N-]C(=O)Nc3cncc(C(F)(F)F)c3)on2)nc1` [Example 141, (3-((2′-methyl-[3,3′-bipyridin]-6-yl)methyl)-1,2,3-oxadiazol-3-ium-5-yl)((5-(trifluoromethyl)pyridin-3-yl)carbamoyl)amide], in assay [1] (Zika virus, Vero), the EC50 fell in the range of 100 to 1000 nM. Moreover, the IC50 in assay [2] (setting [3]) is less than 100 nM.

As for `C[C@@H](c1ccc(-c2cncnc2)cc1)[n+]1cc([N-]C(=O)Nc2cccc(C(F)(F)F)c2)on1` [Example 74, (S)-(3-(1-(4-(pyrimidin-5-yl)phenyl)ethyl)-1,2,3-oxadiazol-3-ium-5-yl)((3-(trifluoromethyl)phenyl)carbamoyl)amide], the EC50 in assay [1] (Zika virus, Vero) fell in the range of 100 to 1000 nM. Besides, the IC50 in assay [2] (setting [3]) was less than 100 nM.

Turning to `Cc1ncnc(C)c1-c1ccc(C[n+]2cc([N-]C(=O)Nc3ccnc(C(F)(F)F)c3)on2)cc1` [Example 185, (3-(4-(4,6-dimethylpyrimidin-5-yl)benzyl)-1,2,3-oxadiazol-3-ium-5-yl)((2-(trifluoromethyl)pyridin-4-yl)carbamoyl)amide], the EC50 in assay [1] (Zika virus, Vero) was less than 100 nM. In addition, in assay [2] (setting [3]), the IC50 is less than 100 nM.

In the case of `O=C([N-]c1c[n+](Cc2ccc(-c3cncnc3)cn2)no1)Nc1cncc(C(F)(F)F)c1` [Example 125, (3-((5-(pyrimidin-5-yl)pyridin-2-yl)methyl)-1,2,3-oxadiazol-3-ium-5-yl)((5-(trifluoromethyl)pyridin-3-yl)carbamoyl)amide], the concentration for a half-maximal effect (EC50) in assay [1] (Zika virus, Vero) was 100 to 1000 nM. The IC50 in assay [2] fell in the range of 100 to 1000 nM.

On to `COc1ncncc1-c1ccc(C[n+]2cc([N-]C(=O)Nc3cccc(C(F)(F)F)c3)on2)cc1` [Example 62, (3-(4-(4-methoxypyrimidin-5-yl)benzyl)-1,2,3-oxadiazol-3-ium-5-yl)((3-(trifluoromethyl)phenyl)carbamoyl)amide], for which the EC50 in assay [1] (Zika virus, Vero) lay within 100 to 1000 nM. In assay [2] (setting [3]), the IC50 is less than 100 nM.

On to `Cc1noc(C)c1-c1cnc(C[n+]2cc([N-]C(=O)Nc3cccc(C(F)(F)F)c3)on2)nc1` [Example 167, (3-((5-(3,5-dimethylisoxazol-4-yl)pyrimidin-2-yl)methyl)-1,2,3-oxadiazol-3-ium-5-yl)((3-(trifluoromethyl)phenyl)carbamoyl)amide], for which the EC50 in assay [1] (Zika virus, Vero) is less than 100 nM. Also, in assay [2], the IC50 is 100 to 1000 nM.

For the compound `Cc1ncn(C)c1-c1ccc(C[n+]2cc([N-]C(=O)Nc3cncc(C(F)(F)F)c3)on2)nc1` [Example 140, (3-((5-(1,4-dimethyl-1H-imidazol-5-yl)pyridin-2-yl)methyl)-1,2,3-oxadiazol-3-ium-5-yl)((5-(trifluoromethyl)pyridin-3-yl)carbamoyl)amide], the EC50 in assay [1] (Zika virus, Vero) was in the range of 1000 to 20000 nM. For the same compound, in assay [2], the IC50 lay within 100 to 1000 nM.

`O=C([N-]c1c[n+](Cc2cccc(-c3cccnc3)c2)no1)Nc1cccc(C(F)(F)F)c1` [Example 51, (3-(3-(pyridin-3-yl)benzyl)-1,2,3-oxadiazol-3-ium-5-yl)((3-(trifluoromethyl)phenyl)carbamoyl)amide]: the EC50 in assay [1] (Zika virus, Vero) lay within 100 to 1000 nM. The compound further gave an IC50 in assay [2] of 100 to 1000 nM.

As for `Cc1n[nH]c(C)c1-c1ccc(C[n+]2cc([N-]C(=O)Nc3cccc(C(F)(F)F)c3)on2)nc1` [Example 151, (3-((5-(3,5-dimethyl-1H-pyrazol-4-yl)pyridin-2-yl)methyl)-1,2,3-oxadiazol-3-ium-5-yl)((3-(trifluoromethyl)phenyl)carbamoyl)amide], the EC50 in assay [1] (Zika virus, Vero) fell in the range of 100 to 1000 nM. Also, the IC50 in assay [2] is 100 to 1000 nM.
